The text below walks through data of article PMC3644560 (Journal of the American Chemical Society, 2013).

The test system of one assay is Aquifex aeolicus IspH. The conditions noted are these: Aquifex aeolicus enzyme, DT-reduced MV ref 26; cited from earlier work.
For assay [1], the target named is T1, E. coli IspH (Escherichia coli, UniProt P62623). Kind of assay: IspH inhibition assay using [3-14C]HMBPP and the NADPH/FpR1/FldA reducing system. In kind it is biochemical. The conditions noted are these: steady-state studies with [3-14C]HMBPP and NADPH/FpR1/FldA.
Assay [2] addresses T1, E. coli IspH. In kind it is biochemical.
For assay [3], the target named is T1, E. coli IspH. Kind of assay: Spectrophotometric IspH assay. It is filed as biochemical. The conditions noted are these: for substrate for IspH (NADPH consumption at 340 nm): 200 μM compound, IspH 0.5 μM, anaerobic, pH 8.
Setting [4] is: fit of kapp vs [AMBPP] to Eqn 2, mechanism A, pH 8, 37 °C.

T1 sequence (P62623 whole entry): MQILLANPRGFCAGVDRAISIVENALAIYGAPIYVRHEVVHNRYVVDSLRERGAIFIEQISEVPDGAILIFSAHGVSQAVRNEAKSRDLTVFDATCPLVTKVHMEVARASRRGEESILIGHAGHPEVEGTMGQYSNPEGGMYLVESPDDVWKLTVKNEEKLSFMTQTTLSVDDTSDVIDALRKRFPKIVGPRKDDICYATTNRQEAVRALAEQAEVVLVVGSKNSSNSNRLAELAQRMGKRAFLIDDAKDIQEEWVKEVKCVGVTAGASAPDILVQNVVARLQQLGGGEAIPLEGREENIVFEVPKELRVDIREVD

For the molecule `C#CCCOP(=O)(O)OP(=O)(O)O` [3-butynyl diphosphate], the IC50 (as a rule, the concentration that gives 50% inhibition) in the assay on Aquifex aeolicus IspH was 450 nM.
Regarding `C/C(=C\COP(=O)(O)OP(=O)(O)O)CN.N.N` [AMBPP, (E)-4-Amino-3-methylbut-2-enyl 1-diphosphate bis ammonium salt], the mode of inhibition entry on E. coli IspH [1] is recorded as “competitive inhibition was confirmed”. In addition, the IC50 on E. coli IspH [2] was 150 ± 20 nM. On E. coli IspH [3], the inhibition constant Ki (usually a dissociation constant, usually derived from enzyme kinetics or from competition with a known ligand) amounted to 54 ± 19 nM and the “substrate for IspH (NADPH consumption at 340 nm)” value is “not substrates for IspH”. The “effect of pH on inhibition constant and rate of binding to IspH” value on E. coli IspH [3] (Figures S5 and S6) was “decrease as pH increases”. At E. coli IspH [3] (setting [4]), the “k3 (rate constant of formation of the EI complex)” value came to 41000 M⁻¹ s⁻¹ and the “k4 (rate constant of dissociation of the EI complex)” value was 0.0022 s⁻¹.
With `C/C(=C\COP(=O)(O)OP(=O)(O)O)CS.N.N` [TMBPP, (E)-4-Mercapto-3-methyl-but-2-en-1-yl diphosphate bis ammonium salt], the mode of inhibition result at E. coli IspH [1] is recorded as “competitive inhibitor”. Besides, at E. coli IspH [2], inhibition was half-maximal at 210 ± 10 nM (IC50). In addition, the “substrate for IspH (NADPH consumption at 340 nm)” value on E. coli IspH [3] is “not substrates for IspH”.
